From patent US11000033B2, “Ketone or oxime compound, and herbicide” (NISSAN CHEMICAL CORPORATION, priority 2014, dated 2021)

Legend:
Type in all cases: in vivo
transplanted rice plant = experiment: Test Example 1: effect on crop, application before weed generation in submerged conditions (symbol a); details: application herbicide amount 320 g/ha
Procedure, shortened: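 Rice at 2.5 leaf stage transplanted into submerged soil (4 cm depth) sown with three weed species; herbicide applied before weed emergence.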

Scirpus juncoides = experiment: Test Example 2: herbicidal activity, application during weed generation in submerged conditions (symbol B); details: Table 23; application herbicide amount 320 g/ha; grade 0-5 by criteria of Test Example 1
Procedure, shortened: (§1)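 Steps: fill pots with alluvial soil; add water to 4 cm depth; co-sow the three weeds; grow at 25° C. to 30° C. under glass; at 1–2 leaves, dose the floodwater with diluted emulsion; rate damage visually after 3 weeks.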

Monochoria vaginalis = experiment: Test Example 2: herbicidal activity, application during weed generation in submerged conditions (symbol C); details: Table 23; application herbicide amount 320 g/ha; grade 0-5 by criteria of Test Example 1
Procedure, shortened: as §1

[1] = system: Echinochloa crus-galli var. crus-galli; experiment: Test Example 4: herbicidal effect by soil treatment (symbol H); details: 320 g/ha
Procedure, shortened: (§2)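 Seeds were sown in sterilized diluvial soil, covered with about 1.5 cm of soil, and the soil surface was sprayed with a water-diluted emulsion of the compound at a predetermined rate. Plants grew in a greenhouse at 25° C. to 30° C.; effects were scored visually 3 weeks after application.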

Avena fatua = experiment: Test Example 4: herbicidal effect by soil treatment (symbol I); details: 320 g/ha
Procedure, shortened: as §2

Lolium multiflorum Lam. [2] = experiment: Test Example 4: herbicidal effect by soil treatment (symbol K); details: 320 g/ha
Procedure, shortened: as §2

Abutilon theophrasti = experiment: Test Example 4: herbicidal effect by soil treatment (symbol M); details: 320 g/ha
Procedure, shortened: as §2

soybean [3] = experiment: Test Example 4: effect on crop by soil treatment (symbol d); details: 320 g/ha
Procedure, shortened: (§3)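 Crop seed is sown in spots together with several weed species in a box of sterilized diluvial soil. It is covered by about 1.5 cm of soil and kept in a greenhouse held between 25° C. and 30° C.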

rice = experiment: Test Example 4: effect on crop by soil treatment (symbol b); details: 320 g/ha
Procedure, shortened: as §3

wheat = experiment: Test Example 4: effect on crop by soil treatment (symbol e); details: 320 g/ha
Procedure, shortened: as §3

beet = experiment: Test Example 4: effect on crop by soil treatment (symbol f); details: 320 g/ha
Procedure, shortened: as §3

Digitaria ciliaris = experiment: Test Example 5: herbicidal effect by foliage application, plastic box (symbol F); details: 320 g/ha, 3 weeks after application
Procedure, shortened: (§4)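 Leaf-applied emulsion, water-diluted to a preset herbicide dose, on two-week-old seedlings raised in a 25° C. to 30° C. greenhouse; injury rated at 3 weeks using earlier criteria.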

[4] = system: Echinochloa crus-galli var. crus-galli; experiment: Test Example 5: herbicidal effect by foliage application, plastic box (symbol H); details: 320 g/ha, 3 weeks after application
Procedure, shortened: as §4

Lolium multiflorum Lam. [5] = experiment: Test Example 5: herbicidal effect by foliage application, plastic box (symbol K); details: 320 g/ha, 3 weeks after application
Procedure, shortened: as §4

Amaranthus retroflexus = experiment: Test Example 5: herbicidal effect by foliage application, plastic box (symbol N); details: 320 g/ha, 3 weeks after application
Procedure, shortened: as §4

Veronica persica = experiment: Test Example 5: herbicidal effect by foliage application, plastic box (symbol R); details: 320 g/ha, 3 weeks after application
Procedure, shortened: as §4

corn = experiment: Test Example 5: effect on crop by foliage application, plastic box (symbol c); details: 320 g/ha, 3 weeks after application
Procedure, shortened: (§5)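 Box culture: sterile diluvial soil, seeds spot-sown, ~1.5 cm cover, raised under glass at 25–30° C.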

soybean [6] = experiment: Test Example 5: effect on crop by foliage application, plastic box (symbol d); details: 320 g/ha, 3 weeks after application
Procedure, shortened: as §5

rapeseed = experiment: Test Example 5: effect on crop by foliage application, plastic box (symbol g); details: 320 g/ha, 3 weeks after application
Procedure, shortened: as §5

| SMILES | Effect grade on crop, a: transplanted rice plant (transplanted rice plant) | Herbicidal effect grade, B: Scirpus juncoides (Scirpus juncoides) | Herbicidal effect grade, C: Monochoria vaginalis (Monochoria vaginalis) | H: Echinochloa crus-galli var. crus-galli, herbicidal effect grade [1] | I: Avena fatua, herbicidal effect grade (Avena fatua) | K: Lolium multiflorum Lam., herbicidal effect grade (Lolium multiflorum Lam. [2]) | M: Abutilon theophrasti, herbicidal effect grade (Abutilon theophrasti) | d: soybean, effect grade on crop (soybean [3]) | b: directly sowed rice plant, effect grade on crop (rice) | e: wheat, effect grade on crop (wheat) | f: beet, effect grade on crop (beet) | F: Digitaria ciliaris, herbicidal effect (criteria 0-5) (Digitaria ciliaris) | H: Echinochloa crus-galli var. crus-galli, herbicidal effect (criteria 0-5) [4] | K: Lolium multiflorum Lam., herbicidal effect (criteria 0-5) (Lolium multiflorum Lam. [5]) | N: Amaranthus retroflexus, herbicidal effect (criteria 0-5) (Amaranthus retroflexus) | R: Veronica persica, herbicidal effect (criteria 0-5) (Veronica persica) | c: corn, effect on crop (criteria 0-5) (corn) | d: soybean, effect on crop (criteria 0-5) (soybean [6]) | g: rapeseed, effect on crop (criteria 0-5) (rapeseed) |
| --- | --- | --- | --- | --- | --- | --- | --- | --- | --- | --- | --- | --- | --- | --- | --- | --- | --- | --- | --- |
| CON=C(CC1CC(O)=C(c2c(C)cc(C)cc2C)C1=O)C1CCCCC1 (stereo not shown) [1-085] | 3 (Herbicidal ratio of 40% or higher and lower than 70%) | 0 (Herbicidal ratio of 5% or lower (almost no effect)) | 0 (Herbicidal ratio of 5% or lower (almost no effect)) | 1 (Herbicidal ratio of 5% or higher and lower than 20%) | 0 (Herbicidal ratio of 5% or lower (almost no effect)) | 3 (Herbicidal ratio of 40% or higher and lower than 70%) | 0 (Herbicidal ratio of 5% or lower (almost no effect)) | 0 (Herbicidal ratio of 5% or lower (almost no effect)) | 5 (Herbicidal ratio of 90% or more (almost completely withered)) | 0 (Herbicidal ratio of 5% or lower (almost no effect)) | 0 (Herbicidal ratio of 5% or lower (almost no effect)) | 3 (Herbicidal ratio of 40% or higher and lower than 70%) | 5 (Herbicidal ratio of 90% or more (almost completely withered)) | 3 (Herbicidal ratio of 40% or higher and lower than 70%) | 0 (Herbicidal ratio of 5% or lower (almost no effect)) | 0 (Herbicidal ratio of 5% or lower (almost no effect)) | 5 (Herbicidal ratio of 90% or more (almost completely withered)) | 0 (Herbicidal ratio of 5% or lower (almost no effect)) | 1 (Herbicidal ratio of 5% or higher and lower than 20%) |
| CON=C(C)CC1CC(OC(=O)C(C)Oc2ccc(Oc3cnc4cc(Cl)ccc4n3)cc2)=C(c2c(C)cc(C)cc2C)C1=O (stereo not shown) [1-087] | 5 (Herbicidal ratio of 90% or more (almost completely withered)) | 5 (Herbicidal ratio of 90% or more (almost completely withered)) | 1 (Herbicidal ratio of 5% or higher and lower than 20%) | 5 (Herbicidal ratio of 90% or more (almost completely withered)) | 3 (Herbicidal ratio of 40% or higher and lower than 70%) | 5 (Herbicidal ratio of 90% or more (almost completely withered)) | 5 (Herbicidal ratio of 90% or more (almost completely withered)) | 2 (Herbicidal ratio of 20% or higher and lower than 40%) | 5 (Herbicidal ratio of 90% or more (almost completely withered)) | 5 (Herbicidal ratio of 90% or more (almost completely withered)) | 4 (Herbicidal ratio of 70% or higher and lower than 90%) | 5 (Herbicidal ratio of 90% or more (almost completely withered)) | 5 (Herbicidal ratio of 90% or more (almost completely withered)) | 5 (Herbicidal ratio of 90% or more (almost completely withered)) | 4 (Herbicidal ratio of 70% or higher and lower than 90%) | 3 (Herbicidal ratio of 40% or higher and lower than 70%) | 5 (Herbicidal ratio of 90% or more (almost completely withered)) | 3 (Herbicidal ratio of 40% or higher and lower than 70%) | 4 (Herbicidal ratio of 70% or higher and lower than 90%) |
| CON=C(C)CC1CC(OC(=O)C2=CCCC2)=C(c2c(C)cc(C)cc2C)C1=O (stereo not shown) [1-088] | 5 (Herbicidal ratio of 90% or more (almost completely withered)) | 5 (Herbicidal ratio of 90% or more (almost completely withered)) | 3 (Herbicidal ratio of 40% or higher and lower than 70%) | 5 (Herbicidal ratio of 90% or more (almost completely withered)) | 3 (Herbicidal ratio of 40% or higher and lower than 70%) | 5 (Herbicidal ratio of 90% or more (almost completely withered)) | 0 (Herbicidal ratio of 5% or lower (almost no effect)) | 0 (Herbicidal ratio of 5% or lower (almost no effect)) | 5 (Herbicidal ratio of 90% or more (almost completely withered)) | 3 (Herbicidal ratio of 40% or higher and lower than 70%) | 0 (Herbicidal ratio of 5% or lower (almost no effect)) | 5 (Herbicidal ratio of 90% or more (almost completely withered)) | 5 (Herbicidal ratio of 90% or more (almost completely withered)) | 5 (Herbicidal ratio of 90% or more (almost completely withered)) | 1 (Herbicidal ratio of 5% or higher and lower than 20%) | 3 (Herbicidal ratio of 40% or higher and lower than 70%) | 5 (Herbicidal ratio of 90% or more (almost completely withered)) | 3 (Herbicidal ratio of 40% or higher and lower than 70%) | 4 (Herbicidal ratio of 70% or higher and lower than 90%) |
| CON=C(C)CC1CC(OC(=O)C2=C(Br)CCC2)=C(c2c(C)cc(C)cc2C)C1=O (stereo not shown) [1-089] | 5 (Herbicidal ratio of 90% or more (almost completely withered)) | 4 (Herbicidal ratio of 70% or higher and lower than 90%) | 3 (Herbicidal ratio of 40% or higher and lower than 70%) | 5 (Herbicidal ratio of 90% or more (almost completely withered)) | 2 (Herbicidal ratio of 20% or higher and lower than 40%) | 5 (Herbicidal ratio of 90% or more (almost completely withered)) | 2 (Herbicidal ratio of 20% or higher and lower than 40%) | 0 (Herbicidal ratio of 5% or lower (almost no effect)) | 5 (Herbicidal ratio of 90% or more (almost completely withered)) | 1 (Herbicidal ratio of 5% or higher and lower than 20%) | 0 (Herbicidal ratio of 5% or lower (almost no effect)) | 5 (Herbicidal ratio of 90% or more (almost completely withered)) | 5 (Herbicidal ratio of 90% or more (almost completely withered)) | 5 (Herbicidal ratio of 90% or more (almost completely withered)) | 2 (Herbicidal ratio of 20% or higher and lower than 40%) | 3 (Herbicidal ratio of 40% or higher and lower than 70%) | 5 (Herbicidal ratio of 90% or more (almost completely withered)) | 2 (Herbicidal ratio of 20% or higher and lower than 40%) | 4 (Herbicidal ratio of 70% or higher and lower than 90%) |
